In one data set the test system is P. aeruginosa DA7232. Put plainly: Levofloxacin accumulation assay. It counts as cell-based, Pseudomonas aeruginosa. The following applies: levofloxacin 64 μg/mL; compound 1/2, 1/4th, 1/8th MIC. The protocol: Similar assays have been described elsewhere with the same purpose.
The treated bacterial culture samples were incubated on ice for 15 min, centrifuged, washed with 1X PBS (pH 7.4), and then resuspended in 1 mL of glycine-HCl buffer (pH 3.0) overnight, followed by centrifugation. The fluorescence of 100 μL of supernatant was read at 490 nm following a 355 nm excitation in a SpectraMax iD5 spectrophotometer (Molecular Devices, San Jose, CA, USA).

In another data set the test system is human RBCs. The data set is described as follows: Hemolytic activity. It counts as cell-based. Particulars: 12.5 to 100 µM.
Another data set has as its target CYP2C19 (Homo sapiens, UniProt P33261). Put plainly: CYP inhibition. The following applies: read-out: CYP Inhibition IC50, CYP 2C19. The class given is in vitro ADME.
In the next data set the target is CYP1A2 (Homo sapiens, UniProt P05177). The data set is described as follows: CYP inhibition. The class given is in vitro ADME. The following applies: read-out: CYP Inhibition IC50, CYP 1A2.
Chain of CYP1A2 (P05177 whole entry): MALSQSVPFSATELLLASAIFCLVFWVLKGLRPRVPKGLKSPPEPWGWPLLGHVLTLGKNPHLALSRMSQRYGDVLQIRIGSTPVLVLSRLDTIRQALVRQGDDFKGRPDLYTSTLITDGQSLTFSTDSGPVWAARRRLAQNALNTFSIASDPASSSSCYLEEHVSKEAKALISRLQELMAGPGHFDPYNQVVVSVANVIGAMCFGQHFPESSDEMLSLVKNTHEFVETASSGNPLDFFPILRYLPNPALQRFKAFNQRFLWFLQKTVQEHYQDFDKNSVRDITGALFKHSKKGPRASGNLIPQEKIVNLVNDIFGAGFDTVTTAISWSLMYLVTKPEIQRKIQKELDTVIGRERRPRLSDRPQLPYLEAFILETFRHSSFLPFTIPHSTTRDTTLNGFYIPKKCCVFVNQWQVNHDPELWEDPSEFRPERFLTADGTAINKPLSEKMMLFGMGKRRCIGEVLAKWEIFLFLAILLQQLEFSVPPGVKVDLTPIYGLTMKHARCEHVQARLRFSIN
The target in another data set is hERG channel (Homo sapiens, UniProt Q12809). The data set is described as follows: hERG patch clamp assay (Q-Patch, CHO cell line). It counts as cell-based. The protocol: (§1) The metabolic stability of TXA09155 was determined in human, mouse, and rat liver microsomes by Eurofins (St. Charles, MO, USA) using the substrate depletion method (in vitro half-life (t1/2) method). Quantification was performed by LC/MS/MS. In this assay, depletion of the parent compound is measured over time to determine the compound’s in vitro t1/2 and hepatic extraction ratios (ER). This is used to predict metabolic clearance. […] This assay utilizes electrophysiology measurements on the electric current passing through the hERG channel heterologously expressed in a stable CHO cell line. Channels are open by a hERG-specific voltage protocol, and the compound effects are directly characterized by their block of the hERG current. The assay is performed on an automated platform, Q-Patch.
Chain of hERG channel (Q12809 whole entry): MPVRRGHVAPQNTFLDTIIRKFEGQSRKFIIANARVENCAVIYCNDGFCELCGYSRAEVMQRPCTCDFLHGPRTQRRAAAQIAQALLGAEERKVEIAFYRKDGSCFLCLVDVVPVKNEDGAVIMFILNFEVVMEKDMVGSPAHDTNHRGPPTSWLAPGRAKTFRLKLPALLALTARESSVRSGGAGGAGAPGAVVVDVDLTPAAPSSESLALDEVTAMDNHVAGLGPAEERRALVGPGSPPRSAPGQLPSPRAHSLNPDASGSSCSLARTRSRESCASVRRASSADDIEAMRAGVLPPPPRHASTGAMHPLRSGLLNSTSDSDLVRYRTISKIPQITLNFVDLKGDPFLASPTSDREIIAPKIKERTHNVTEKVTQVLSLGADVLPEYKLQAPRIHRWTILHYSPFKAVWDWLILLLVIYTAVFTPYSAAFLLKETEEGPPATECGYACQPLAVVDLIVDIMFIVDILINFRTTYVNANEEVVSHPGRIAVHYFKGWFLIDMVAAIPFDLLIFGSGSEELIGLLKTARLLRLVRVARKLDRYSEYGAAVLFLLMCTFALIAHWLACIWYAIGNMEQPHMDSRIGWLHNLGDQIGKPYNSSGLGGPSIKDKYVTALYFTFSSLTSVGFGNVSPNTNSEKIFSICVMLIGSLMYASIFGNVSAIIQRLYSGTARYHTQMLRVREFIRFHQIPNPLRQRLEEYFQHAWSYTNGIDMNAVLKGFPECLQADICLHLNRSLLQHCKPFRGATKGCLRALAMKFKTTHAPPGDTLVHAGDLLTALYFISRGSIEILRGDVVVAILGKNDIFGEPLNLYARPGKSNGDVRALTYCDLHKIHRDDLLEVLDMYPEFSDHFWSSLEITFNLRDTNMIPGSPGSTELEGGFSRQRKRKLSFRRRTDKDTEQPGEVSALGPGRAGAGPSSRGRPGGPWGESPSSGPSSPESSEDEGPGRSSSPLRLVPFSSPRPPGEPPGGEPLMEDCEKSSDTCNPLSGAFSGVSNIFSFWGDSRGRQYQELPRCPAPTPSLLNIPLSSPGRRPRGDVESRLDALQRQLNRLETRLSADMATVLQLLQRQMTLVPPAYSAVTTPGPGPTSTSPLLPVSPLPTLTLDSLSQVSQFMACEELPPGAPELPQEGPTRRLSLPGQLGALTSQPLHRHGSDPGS

A further data set addresses CYP3A4 (Homo sapiens, UniProt P08684). The data set is described as follows: CYP inhibition. It counts as in vitro ADME. Particulars: read-out: CYP Inhibition IC50, CYP 3A4.
The test system of data set [1] is P. aeruginosa ATCC 27853 inner membrane. Put plainly: Flow cytometry propidium iodide (PI) assay for inner membrane permeabilization. The class given is cell-based, Pseudomonas aeruginosa. Particulars: no inner membrane permeabilization below this concentration.
Procedure: Membrane disruption was assayed with two approaches: (1) a flow cytometry-based propidium iodide (PI) assay to monitor inner membrane permeabilization, and (2) a nitrocefin (NCF) assay to monitor outer membrane permeabilization. NCF is a chromogenic cephalosporin that changes from yellow to red when the amide bond in the β-lactam ring is hydrolyzed by a β-lactamase. The rate of hydrolysis in intact cells is slow, as it is limited by the rate of diffusion of periplasmic β-lactamase across the outer membrane. However, in the presence of an agent that permeabilizes the outer membrane, the rate of hydrolysis will increase [33]. […] Polymyxin B was used as a positive control (Figure 2B). […] Cells whose membranes remain intact exclude PI and remain non-fluorescent, while cells with compromised membrane integrity allow PI to enter and bind to DNA, resulting in fluorescence.
A flow cytometry assay used for assessing potential inner membranes permeabilization of P. aeruginosa bacterial cells to PI was conducted using the LIVE/DEAD BacLight Kit from Invitrogen (Waltham, MA, USA). […] Intracellular PI fluorescence was detected by flow cytometry using a CytoFlex (Beckman Coulter Inc., Brea, CA, USA). […] For each sample, the fluorescence of 10,000 individual bacterial cells was measured, and the percent of cells that stained positive for PI fluorescence was calculated.
For the next data set, the system named is P. aeruginosa ATCC 27853. Put plainly: Intracellular ATP levels. The class given is cell-based, Pseudomonas aeruginosa. The following applies: 1/4th and 1/8th MIC, 3 h. The protocol: P. aeruginosa intracellular ATP levels were determined as described previously using an ATP determination kit (catalog number A22066; Thermo Fisher Scientific, Waltham, MA, USA). […] After treatment, the cells were lysed in chloroform, which was subsequently removed by boiling at 80 °C. The persistent ATP from cell lysate was measured in a 96-well black flat-bottom plate and plotted as relative luminescence units. […] Error bars represent the standard deviation of triplicates.

Data set [2] in a line: Metabolic stability in rat liver microsomes. The class given is in vitro ADME. Here is the method: as §1
A short description of data set [3]: Metabolic stability in human liver microsomes. The class given is in vitro ADME. Here is the method: as §1
In another data set the target is CYP2C9 (Homo sapiens, UniProt P11712). The data set is described as follows: CYP inhibition. The class given is in vitro ADME. The following applies: read-out: CYP Inhibition IC50, CYP 2C9.
Chain of CYP2C9 (P11712 whole entry): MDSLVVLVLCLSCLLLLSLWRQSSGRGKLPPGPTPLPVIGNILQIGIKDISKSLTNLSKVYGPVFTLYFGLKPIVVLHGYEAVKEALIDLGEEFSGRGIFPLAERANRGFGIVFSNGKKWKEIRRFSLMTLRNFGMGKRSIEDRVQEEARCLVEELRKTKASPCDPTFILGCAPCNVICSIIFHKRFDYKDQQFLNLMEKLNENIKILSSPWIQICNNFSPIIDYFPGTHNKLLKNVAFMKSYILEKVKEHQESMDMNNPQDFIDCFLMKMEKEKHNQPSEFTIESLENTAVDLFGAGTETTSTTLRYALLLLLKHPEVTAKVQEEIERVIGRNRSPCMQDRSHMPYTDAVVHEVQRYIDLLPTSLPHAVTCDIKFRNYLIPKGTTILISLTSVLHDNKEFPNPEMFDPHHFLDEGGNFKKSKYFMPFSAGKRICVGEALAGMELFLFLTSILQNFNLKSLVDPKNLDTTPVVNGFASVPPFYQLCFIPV
Another data set in a line: Solubility at pH 7.4. It counts as physicochemical. Particulars: pH 7.4, aqueous buffer.
Data set [4] relates to P. aeruginosa K2415 (mexXY-oprM overexpressed). Put plainly: MIC / potentiation assay, strain K2415. It counts as cell-based, Pseudomonas aeruginosa. The following applies: Pseudomonas aeruginosa, read-out: MICs K2415 (↑mexXY-oprM). An excerpt:
(§2) P. aeruginosa ATCC 27853 was obtained from the American Type Culture Collection (ATCC; Manassas, VA, USA). P. aeruginosa multidrug-resistant isolates were obtained from the CDC and FDA Antibiotic Resistance Isolate Bank (Atlanta, GA, USA). P. aeruginosa DA7232 (gyrA-T83I, parC-S80L) was a kind gift from Prof. Dan I. Andersson, Uppsala University, Uppsala, Sweden, and has been characterized elsewhere. P. aeruginosa strains K767 (WT), K1455 (mexAB-oprM overexpressed), K2415 (mexXY-oprM overexpressed), and K3698 (oprM∆) were obtained from Prof. Keith Poole, Queen’s University, Kingston, Ontario, Canada and have been characterized elsewhere. Bacterial cells were grown in cation-adjusted Mueller Hinton (CAMH) media, brain heart infusion broth (BHI), or tryptic soy agar (TSA) plates were all obtained from Becton, Dickinson, and Company (BD; Franklin Lakes, NJ, USA). Aztreonam, ceftazidime, moxifloxacin, levofloxacin, minocycline, tigecycline, chloramphenicol, nitrocefin, and imipenem were purchased from TOKU-E (Bellingham, WA, USA). Azithromycin was purchased from Tokyo Chemical Industry (Portland, OR, USA). Cotrimoxazole was purchased from Toronto Research Chemicals (Toronto, ON, Canada). Doxycycline and polymyxin B were purchased from Sigma-Aldrich (St. Louis, MO, USA). Ethidium bromide (EtBr) and glucose were purchased from VWR (Radnor, PA, USA). MC-04,124 and TXA01182 were synthesized at TAXIS Pharmaceuticals. Carbonyl cyanide 3-chlorophenylhydrazone (CCCP) was purchased from Enzo Life Sciences (Farmingdale, NY, USA). DiOC2 (3) and propidium iodide were obtained from Thermo Fisher Scientific (Waltham, MA, USA).
(§3) MIC assays were performed as described previously.

Data set [5] concerns P. aeruginosa K3698 (∆oprM). Put plainly: MIC / potentiation assay, strain K3698. The class given is cell-based, Pseudomonas aeruginosa. Particulars: Pseudomonas aeruginosa, read-out: MICs K3698 (∆oprM).
Text: as §2, with “Aztreonam, ceftazidime, moxifloxacin, levofloxacin, minocycline, tigecycline, chloramphenicol, nitrocefin, and imipenem were purchased from TOKU-E (Bellingham, WA, USA).” left out, “Cotrimoxazole was purchased from Toronto Research Chemicals (Toronto, ON, Canada). Doxycycline and polymyxin B were purchased from Sigma-Aldrich (St. Louis, MO, USA).” left out
as §3

Here are results for two molecules from article PMC9220351, “Evaluation of a Conformationally Constrained Indole Carboxamide as a Potential Efflux Pump Inhibitor in Pseudomonas aeruginosa” (Antibiotics, 2022).

For orientation: IC50 means the concentration that gives 50% inhibition. For orientation: solubility means how much of the substance goes into solution per volume. The low end stands for a poorly soluble substance, the high end for a readily soluble substance.

Chain of CYP3A4 (P08684 whole entry): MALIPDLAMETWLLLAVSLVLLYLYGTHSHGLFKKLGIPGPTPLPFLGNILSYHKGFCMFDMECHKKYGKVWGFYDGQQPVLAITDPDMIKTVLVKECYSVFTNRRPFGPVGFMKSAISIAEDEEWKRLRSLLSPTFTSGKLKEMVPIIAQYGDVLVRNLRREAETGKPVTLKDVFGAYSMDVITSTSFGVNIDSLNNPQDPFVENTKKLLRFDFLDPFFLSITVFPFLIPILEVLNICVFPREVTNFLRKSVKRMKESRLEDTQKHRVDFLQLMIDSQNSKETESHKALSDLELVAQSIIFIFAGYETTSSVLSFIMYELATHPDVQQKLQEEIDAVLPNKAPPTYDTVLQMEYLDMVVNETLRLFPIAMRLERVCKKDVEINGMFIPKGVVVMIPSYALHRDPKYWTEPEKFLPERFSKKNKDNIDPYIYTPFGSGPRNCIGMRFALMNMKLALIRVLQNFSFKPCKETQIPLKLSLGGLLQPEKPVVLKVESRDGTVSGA
Chain of CYP2C19 (P33261 whole entry): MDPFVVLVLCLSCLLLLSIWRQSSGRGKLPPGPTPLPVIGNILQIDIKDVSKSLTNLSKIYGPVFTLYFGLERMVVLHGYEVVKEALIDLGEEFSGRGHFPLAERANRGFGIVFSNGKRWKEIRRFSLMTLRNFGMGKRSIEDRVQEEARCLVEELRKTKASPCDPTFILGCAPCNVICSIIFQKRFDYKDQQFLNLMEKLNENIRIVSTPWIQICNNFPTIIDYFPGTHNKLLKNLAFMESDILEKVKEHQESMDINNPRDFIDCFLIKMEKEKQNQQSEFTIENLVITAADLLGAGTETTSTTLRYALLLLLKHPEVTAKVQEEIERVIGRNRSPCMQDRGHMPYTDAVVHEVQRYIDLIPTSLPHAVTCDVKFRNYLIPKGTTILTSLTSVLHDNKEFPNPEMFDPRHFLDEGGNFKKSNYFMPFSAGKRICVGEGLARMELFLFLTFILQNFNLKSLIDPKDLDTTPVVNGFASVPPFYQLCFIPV

Take `Cl.NC[C@@H]1CN[C@H](CNC(=O)c2cc3ccc(-c4ccc(F)cc4)cc3[nH]2)C1` [TXA09155, N-(((2S,4R)-4-(aminomethyl)pyrrolidine-2-yl)methyl)-6-(4-fluorophenyl)-1H-indole-2-carboxamide hydrochloride salt]: in the data set on P. aeruginosa DA7232, the “accumulation of levofloxacin inside P. aeruginosa” value is listed as “concentration-dependent manner”. The hemolytic activity result in the data set on human RBCs was “did not display hemolytic activity”. In addition, the IC50 is above 100 µM on CYP2C19; above 100 µM at CYP1A2; 16 µM against hERG channel; 28.5 µM at CYP3A4; above 100 µM on CYP2C9. Moreover, in data set [1], the “concentrations without inner membrane disruption (basal PI fluorescence)” value is below 50 µg/mL. The ATP depletion entry in the data set with P. aeruginosa ATCC 27853 is “did not result in ATP depletion”. For the same molecule, the “HLM and RLM Metabolic Stability (RLM)” value in [2] was above 60%. Also, in data set [3], the “HLM and RLM Metabolic Stability (HLM)” value is on record as above 60%. Moreover, the solubility in “Solubility at pH 7.4” is above 155 µM.

As for `C[C@H]1COc2c(N3CCN(C)CC3)c(F)cc3c(=O)c(C(=O)O)cn1c23` [Levofloxacin], the MIC is 4 µg/mL in data set [4] and 0.031 µg/mL in [5].
